According to PMC8745332, “Synthesis, Molecular Docking and Biological Characterization of Pyrazine Linked 2-Aminobenzamides as New Class I Selective Histone Deacetylase (HDAC) Inhibitors with Anti-Leukemic Activity” (International Journal of Molecular Sciences, 2021):

Legend:
Type in all cases: biochemical
human HDAC1 = target: T1, human HDAC1 (Homo sapiens, UniProt Q13547); assay: In vitro HDAC1 inhibition assay, fluorogenic p53 peptide Ac-RHKK(Acetyl)-AMC; settings: 10 nM HDAC1, 20 µM substrate, 90 min, 37 °C
T1 construct: purchased ENZO Life Sciences AG (Lausen, CH)
T1 sequence (Q13547 whole entry): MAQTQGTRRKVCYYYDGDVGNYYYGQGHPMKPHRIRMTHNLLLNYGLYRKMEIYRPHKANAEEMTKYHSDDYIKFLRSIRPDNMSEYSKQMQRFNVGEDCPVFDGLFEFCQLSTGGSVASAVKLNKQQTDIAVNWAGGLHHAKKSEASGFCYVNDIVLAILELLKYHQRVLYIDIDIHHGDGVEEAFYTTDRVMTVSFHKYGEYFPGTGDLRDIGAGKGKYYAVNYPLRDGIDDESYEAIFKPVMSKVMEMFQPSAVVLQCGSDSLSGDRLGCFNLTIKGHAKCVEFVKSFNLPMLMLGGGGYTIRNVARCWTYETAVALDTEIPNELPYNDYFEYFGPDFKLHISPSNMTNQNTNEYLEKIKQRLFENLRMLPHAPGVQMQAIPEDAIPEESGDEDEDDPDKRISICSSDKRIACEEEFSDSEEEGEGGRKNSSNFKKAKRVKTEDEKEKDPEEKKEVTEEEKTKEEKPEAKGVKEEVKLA
Method: (§1) Recombinant human HDAC1, HDAC2, and HDAC3/NCOR1 were purchased from ENZO Life Sciences AG (Lausen, CH). Recombinant human HDAC 4, HDAC5, HDAC7, HDAC9 and HDAC11 were produced by Barinka lab in Prague, as described before. Recombinant human HDAC8 was produced by Romier et al. (IGBMC, Univ. Strasbourg), as described in [55].
The in vitro testing on recombinant HDACs 1-3 were performed with a fluorogenic peptide derived from p53 (Ac-RHKK(Acetyl)-AMC). The measurements were performed in an assay buffer (50 mM Hepes, 150 mM NaCl, 5 mM MgCl2, 1 mM TCEP and 0.2 mg/mL BSA, pH 7.4 adjusted with NaOH) at 37 °C. Inhibitors at different concentrations were incubated with 10 nM HDAC1, 3 nM HDAC2 or 3 nM HDAC3 (final concentration) for at least 5 min. The reaction was started with the addition of the fluorogenic substrate (20 µM final concentration) and incubated for 30 min for HDAC2 and HDAC3 and 90 min for HDAC1. The reaction was stopped with a solution of 1 mg/mL trypsin and 20 µM SAHA in 1 mM HCl and incubated for 1 h at 37 °C. […] The received fluorescence intensities were normalized with uninhibited reaction as 100% and the reaction without enzyme as 0%. A nonlinear regression analysis was done to determine the IC50 value.

human HDAC11 = target: T2, human HDAC11 (Homo sapiens, UniProt Q96DB2); assay: HDAC11 inhibition assay
T2 construct: made in house
T2 sequence (Q96DB2 1-347): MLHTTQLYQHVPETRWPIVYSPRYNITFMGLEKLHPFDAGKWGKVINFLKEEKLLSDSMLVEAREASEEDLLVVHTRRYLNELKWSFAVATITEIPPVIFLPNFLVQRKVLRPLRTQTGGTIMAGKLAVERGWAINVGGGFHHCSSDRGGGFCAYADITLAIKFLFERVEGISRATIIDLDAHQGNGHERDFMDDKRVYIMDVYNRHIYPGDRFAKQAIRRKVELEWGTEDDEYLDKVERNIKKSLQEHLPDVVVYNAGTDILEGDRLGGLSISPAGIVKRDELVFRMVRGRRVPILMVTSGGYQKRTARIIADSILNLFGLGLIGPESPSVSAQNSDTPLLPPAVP
Method: as §1
The determination of dose response curves for HDAC4, 5, 7 and 9 was performed as previously described with compound 4 as substrate (Abz-SRGGK(thio-TFA)FFRR-NH2). The substrate concentration was 50 µM and the enzyme concentration was 10 nM for HDAC4 and HDAC5, 5 nM for HDAC7 and 20 nM for HDAC9. HDAC11 inhibition assay was performed as described before. The fluorescence intensity was recorded with an Envision 2104 Multilabel Plate Reader (PerkinElmer, Waltham, MA) with an excitation wavelength of 330 ± 75 nm and an emission wavelength of 430 ± 8 nm.

HDAC6 = target: T3, HDAC6 (Homo sapiens, UniProt Q9UBN7); assay: HDAC6 inhibition (HDAC subtype panel)
T3 construct: made in house
T3 sequence (Q9UBN7 1-1215): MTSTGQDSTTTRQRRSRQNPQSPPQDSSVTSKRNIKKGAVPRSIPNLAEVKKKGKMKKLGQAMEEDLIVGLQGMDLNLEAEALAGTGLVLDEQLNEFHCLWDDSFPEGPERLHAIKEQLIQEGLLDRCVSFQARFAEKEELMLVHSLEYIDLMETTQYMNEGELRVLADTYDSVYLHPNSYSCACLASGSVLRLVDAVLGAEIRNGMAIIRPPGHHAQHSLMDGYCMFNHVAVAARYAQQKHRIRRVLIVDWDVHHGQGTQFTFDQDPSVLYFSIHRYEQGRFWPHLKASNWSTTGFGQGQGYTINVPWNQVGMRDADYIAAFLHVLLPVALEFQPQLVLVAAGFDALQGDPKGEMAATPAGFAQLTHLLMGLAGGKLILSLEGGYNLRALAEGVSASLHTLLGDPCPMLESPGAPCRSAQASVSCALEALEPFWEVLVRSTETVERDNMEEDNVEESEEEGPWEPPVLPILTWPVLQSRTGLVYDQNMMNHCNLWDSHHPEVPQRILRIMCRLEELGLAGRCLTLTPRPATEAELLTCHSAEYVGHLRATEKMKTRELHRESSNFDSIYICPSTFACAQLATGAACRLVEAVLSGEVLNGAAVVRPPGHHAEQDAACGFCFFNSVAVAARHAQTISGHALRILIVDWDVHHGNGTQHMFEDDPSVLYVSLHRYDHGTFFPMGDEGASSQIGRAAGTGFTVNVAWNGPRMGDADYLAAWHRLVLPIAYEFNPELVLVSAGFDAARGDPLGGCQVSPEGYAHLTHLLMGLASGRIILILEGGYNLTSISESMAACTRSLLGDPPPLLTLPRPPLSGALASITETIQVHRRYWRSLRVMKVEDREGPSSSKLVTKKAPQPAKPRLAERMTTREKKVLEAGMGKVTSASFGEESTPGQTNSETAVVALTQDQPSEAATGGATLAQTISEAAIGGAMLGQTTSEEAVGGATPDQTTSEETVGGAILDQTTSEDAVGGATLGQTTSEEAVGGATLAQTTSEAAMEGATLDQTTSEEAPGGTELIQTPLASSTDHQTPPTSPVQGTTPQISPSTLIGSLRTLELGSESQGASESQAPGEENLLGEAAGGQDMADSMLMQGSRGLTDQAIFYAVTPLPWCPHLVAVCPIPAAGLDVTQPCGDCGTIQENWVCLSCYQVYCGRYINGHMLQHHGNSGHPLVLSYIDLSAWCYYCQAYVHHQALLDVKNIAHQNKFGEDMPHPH

| Structure (SMILES) | IC50 (human HDAC1) [µM] | IC50 (human HDAC11) [µM] | IC50 (HDAC6) [µM] |
| --- | --- | --- | --- |
| Nc1ccccc1NC(=O)c1cnc(N2CCN(Cc3c[nH]c4ccccc34)CC2)cn1 [19f, 5-(4-((1H-indol-3-yl)methyl)piperazin-1-yl)-N-(2-aminophenyl)pyrazine-2-carboxamide] | 0.13 ± 0.01 | > 20 | > 20 |
| Cn1cc(CCN2CCN(c3cnc(C(=O)Nc4cc(-c5cccs5)ccc4N)cn3)CC2)c2ccccc21 [21a, N-(2-Amino-5-(thiophen-2-yl)phenyl)-5-(4-(2-(1-methyl-1H-indol-3-yl)ethyl)piperazin-1-yl)pyrazine-2-carboxamide] | 0.26 ± 0.01 | 7.5 ± 1 | > 20 |
